In patent US20210052537A1, “COLITIS AMELIORATING AGENT” (ASTA PHARMACEUTICALS, CO., LTD., priority 2018, published 2021):
Values joined by “and” are separate entries in the source; they are usually repeats but may differ in a detail not shown here. Equal entries are not always repeated.

System: Oxa-induced colitis
Experiment: Oxazolone (Oxa)-induced colitis mouse model
Type: in vivo
Settings: for Colon length / Colon weight (wet weight per length): 6 days, mean ± SD
Source text: In this Example, mouse models to which oxazolone (4-ethoxymethylene-2-phenyl-2-oxazolin-5-on, hereinafter, Oxa) is used will be described as colitis models. When Oxa was first applied to skin, subsequently administered enterally after a certain period of time, an experimental ulcerative colitis model similar to human ulcerative colitis in terms of not only symptoms such as suppression of body weight increase, blood in stools, and anemia and formation of colon erosion but also immune cells was built (Non-Patent Literature 4). A suppression effect of Compound X on colitis in such a model as the test model showing pathological conditions more similar to human ulcerative colitis was examined. For the examination items, the length and weight of the colon were examined as changes in colon properties are widely known to occur also in this model.
For treatment, Balb/c, male mice were purchased from CHARLES RIVER LABORATORIES JAPAN, INC. in accordance with previous literature (Non-Patent Literature 5) and 8-week old mice with no abnormal general conditions during quarantine and acclimation period were used for the experiment. After acclimation, the animals were divided in such a way as to be 1 mouse per cage. Oxa used in the experiment was purchased from Sigma.
Fur at back of the neck was shaved in an area of 1.5×1.5 cm under anesthesia, and 150 μL (a 100% ethanol solution) of 3% (wt/vol) Oxa was added using a pipette and applied between the shoulders to sensitize (Day 1). The mice were kept under such a typical breeding environment, fasted for 16 hours from Day 7 (water supply was continued), and subsequently on Day 8 100 μL of a solution of 1% (wt/vol) Oxa in 50% ethanol was transanally administered into the rectum (3.5 cm from the anus) using a catheter under anesthesia. Hereinafter, the above treatment is described as Oxa treatment. After treatment, typical feeding breeding was carried out.
Starting on the day following intrarectal administration of Oxa, test substances were orally administered (once daily, for 6 days). 5-Aminosalicylic acid (hereinafter 5-ASA, Tokyo Chemical Industry, Co., Ltd.) and prednisolone (hereinafter, PSL, Sigma), which are anti-inflammatory agents used for treating ulcerative colitis, were used as positive controls for the test. After group division, each of the test substances of Table 6 was suspended in a solution of 0.5% sodium carboxymethyl cellulose (hereinafter, CMC, Nacalai Tesque Inc.) in such a way as to be each treatment of Table 6 and orally administered once daily. […] These control groups, Groups 1 and 2, were orally administered, as the test substance, with the 0.5% CMC solution which was used as the medium.
The test started with 6 mice in Group No. 1 and 9 mice each in Group Nos. 2 to 6. After the treatment started, death of animals in Group Nos. 2 to 6 due to the cause considered enteritis from Oxa treatment was observed and thus 6 mice in Group Nos. 1 and 3, and 5 mice in Group Nos. 2 and 6, and 7 mice in Group Nos. 4 and 5 were finally used for analysis.
It is generally acknowledged as a known fact that Oxa treatment causes colon tissue changes such as the length of colon is shortened while the weight increases. For evaluating the therapeutic effect of Compound X, the length and weight of the colon were measured. The mice were euthanized under anesthesia on day 7 of Oxa treatment and dissected to remove the colon. The removed colon was quickly measured for a length in a relaxed state. Subsequently, feces in the intestinal tract were removed and sufficiently washed with phosphate buffered saline (Wako Pure Chemical Industries, Ltd.) and measured for a wet weight.

[1] = Group Nos. 3 to 6 of Table 7, in words
[2] = Oxa treatment + high dose 10 mg/kg/day oral, day 7, 10 mg/kg/day

CC1=C(/C=C/C(C)=C/C=C/C(C)=C/C=C/C=C(C)/C=C/C=C(C)/C=C/C2=C(C)C(=O)[C@@H](OC(=O)CNC(=O)NCCCC(=O)O)CC2(C)C)C(C)(C)C[C@H](OC(=O)CNC(=O)NCCCC(=O)O)C1=O.NCCCC[C@H](N)C(=O)O.NCCCC[C@H](N)C(=O)O [Compound X, 4-(3-{4-[18-(4(S)-[3-(3-Carboxypropyl)ureidoacetoxy]-2,6,6-trimethyl-3-oxocyclohexa-1-enyl)-3,7,12,16-tetramethyloctadeca-1(E),3(E),5(E),7(E),9(E),11(E),13(E),15(E),17(E)-nonaenyl]-3,5,5-trimethyl-2-oxocyclohex-3-enyl-1(S)-oxycarbonylmethyl}ureido)butyric acid dilysine salt]
Colon length compared with Vehicle group [1]: longer length of the colon than Vehicle group
Colon wet weight compared with Vehicle group [1]: suppressed weight increases compared with Vehicle group
Colon length [2]: 8.74 cm and 8.74 ± 0.48 cm
Colon weight (wet weight per length) [2]: 2.80 mg/mm and 2.80 ± 0.43 mg/mm
Colon length (Oxa treatment + low dose 3 mg/kg/day oral, Balb/c mice, day 7 of Oxa treatment, 3 mg/kg/day): 8.72 cm and 8.72 ± 0.50 cm
Colon weight (wet weight per length) (Oxa treatment + low dose 3 mg/kg/day oral, day 7, 3 mg/kg/day): 3.44 mg/mm and 3.44 ± 0.45 mg/mm
